Test results reported in the supplement of paper PMC10307832.

Columns and labels:
Assay in all cases: relative viability (nuclei count vs DMSO), 5 days (fraction); higher = more cells survive
LCLC-103H = test system: LCLC-103H
Summary of the method: (§1)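 Values are medians from duplicate plates. Each reflects relative viability, defined as the nuclei count of treated wells over that of vehicle wells. Lung cancer cell lines in 1536-well plates were pin-tool dosed one day after seeding with one drug alone or with a fixed anchor-drug dose plus five library-drug doses (not always all listed) in √10 steps, then fixed, stained and imaged at 4× after 5 days.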

NCI-H441 = test system: NCI-H441
Summary of the method: as §1

201T = test system: 201T
Summary of the method: as §1

NCI-H596 = test system: NCI-H596
Summary of the method: as §1

LOU-NH91 = test system: LOU-NH91
Summary of the method: as §1

NCI-H2126 = test system: NCI-H2126
Summary of the method: as §1

NCI-H2023 = test system: NCI-H2023
Summary of the method: as §1

NCI-H522 = test system: NCI-H522
Summary of the method: as §1

HCC-44 = test system: HCC-44
Summary of the method: as §1

NCI-H2087 = test system: NCI-H2087
Summary of the method: as §1

NCI-H2347 = test system: NCI-H2347
Summary of the method: as §1

NCI-H1993 = test system: NCI-H1993
Summary of the method: as §1

NCI-H1395 = test system: NCI-H1395
Summary of the method: as §1

NCI-H23 = test system: NCI-H23
Summary of the method: as §1

NCI-H650 = test system: NCI-H650
Summary of the method: as §1

NCI-H2009 = test system: NCI-H2009
Summary of the method: as §1

HARA = test system: HARA
Summary of the method: as §1

EMC-BAC-2 = test system: EMC-BAC-2
Summary of the method: as §1

NCI-H647 = test system: NCI-H647
Summary of the method: as §1

NCI-H1666 = test system: NCI-H1666
Summary of the method: as §1

NCI-H838 = test system: NCI-H838
Summary of the method: as §1

NCI-H3122 = test system: NCI-H3122
Summary of the method: as §1

BEN = test system: BEN
Summary of the method: as §1

In the case of C[C@@H]1CN(CC(=O)Nc2ccc3c(c2)Cc2cccc(-c4cc(=O)cc(N5CCOCC5)o4)c2S3)C[C@H](C)O1 + Nc1nc2[nH]cc(CCc3ccc(C(=O)N[C@@H](CCC(=O)O)C(=O)O)cc3)c2c(=O)[nH]1 [Pemetrexed] (partner 0.2 µM), the relative viability (LCLC-103H; first compound 0.04 µM) was 0.495, the relative viability (LCLC-103H; first compound 0.1265 µM) was 0.464 and the relative viability (LCLC-103H; first compound 0.4 µM) was 0.458. For the same compound, the relative viability (LCLC-103H; first compound 4 µM) was 0.507, the relative viability (NCI-H441; first compound 0.04 µM) was 0.281 and the relative viability (NCI-H441; first compound 0.1265 µM) was 0.263. For the same compound, the relative viability (NCI-H441; first compound 0.4 µM) was 0.247, the relative viability (NCI-H441; first compound 4 µM) was 0.217 and the relative viability (201T; first compound 0.04 µM) was 0.329. It also gave a relative viability (201T; first compound 0.1265 µM) of 0.319, a relative viability (201T; first compound 0.4 µM) of 0.295 and a relative viability (201T; first compound 4 µM) of 0.314. For the same compound, the relative viability (NCI-H596; first compound 0.04 µM) was 0.548, the relative viability (NCI-H596; first compound 0.1265 µM) was 0.535 and the relative viability (NCI-H596; first compound 0.4 µM) was 0.429. For the same compound, the relative viability (NCI-H596; first compound 4 µM) was 0.481, the relative viability (LOU-NH91; first compound 0.04 µM) was 0.339 and the relative viability (LOU-NH91; first compound 0.1265 µM) was 0.367. It also gave a relative viability (LOU-NH91; first compound 0.4 µM) of 0.36, a relative viability (LOU-NH91; first compound 4 µM) of 0.329 and a relative viability (NCI-H2126; first compound 0.04 µM) of 0.668. It also gave a relative viability (NCI-H2126; first compound 0.1265 µM) of 0.657, a relative viability (NCI-H2126; first compound 0.4 µM) of 0.77 and a relative viability (NCI-H2126; first compound 4 µM) of 0.695. It also gave a relative viability (NCI-H2023; first compound 0.04 µM) of 0.263, a relative viability (NCI-H2023; first compound 0.1265 µM) of 0.213 and a relative viability (NCI-H2023; first compound 0.4 µM) of 0.203. For the same compound, the relative viability (NCI-H2023; first compound 4 µM) was 0.199, the relative viability (NCI-H522; first compound 0.04 µM) was 0.691 and the relative viability (NCI-H522; first compound 0.1265 µM) was 0.89. The relative viability (NCI-H522; first compound 0.4 µM) was 1.11, the relative viability (NCI-H522; first compound 4 µM) was 1.11 and the relative viability (HCC-44; first compound 0.04 µM) was 0.639. It also gave a relative viability (HCC-44; first compound 0.1265 µM) of 0.644, a relative viability (HCC-44; first compound 0.4 µM) of 0.639 and a relative viability (HCC-44; first compound 4 µM) of 0.63. For the same compound, the relative viability (NCI-H2087; first compound 0.04 µM) was 0.676, the relative viability (NCI-H2087; first compound 0.1265 µM) was 0.668 and the relative viability (NCI-H2087; first compound 0.4 µM) was 0.677. The relative viability (NCI-H2087; first compound 4 µM) was 0.621, the relative viability (NCI-H2347; first compound 0.04 µM) was 0.413 and the relative viability (NCI-H2347; first compound 0.1265 µM) was 0.408. For the same compound, the relative viability (NCI-H2347; first compound 0.4 µM) was 0.413, the relative viability (NCI-H2347; first compound 4 µM) was 0.381 and the relative viability (NCI-H1993; first compound 0.04 µM) was 0.63. It also gave a relative viability (NCI-H1993; first compound 0.1265 µM) of 0.587, a relative viability (NCI-H1993; first compound 0.4 µM) of 0.542 and a relative viability (NCI-H1993; first compound 4 µM) of 0.578. It also gave a relative viability (NCI-H1395; first compound 0.1265 µM) of 0.833, a relative viability (NCI-H1395; first compound 0.4 µM) of 0.749 and a relative viability (NCI-H1395; first compound 4 µM) of 1.08. For the same compound, the relative viability (NCI-H23; first compound 0.04 µM) was 0.685, the relative viability (NCI-H23; first compound 0.1265 µM) was 0.696 and the relative viability (NCI-H23; first compound 0.4 µM) was 0.617. For the same compound, the relative viability (NCI-H23; first compound 4 µM) was 0.521, the relative viability (NCI-H650; first compound 0.04 µM) was 0.925 and the relative viability (NCI-H650; first compound 0.1265 µM) was 0.866. The relative viability (NCI-H650; first compound 0.4 µM) was 0.943, the relative viability (NCI-H650; first compound 4 µM) was 0.812 and the relative viability (NCI-H2009; first compound 0.04 µM) was 1.06. It also gave a relative viability (NCI-H2009; first compound 0.1265 µM) of 0.968, a relative viability (NCI-H2009; first compound 0.4 µM) of 1.05 and a relative viability (NCI-H2009; first compound 4 µM) of 0.849. The relative viability (HARA; first compound 0.04 µM) was 0.287, the relative viability (HARA; first compound 0.1265 µM) was 0.24 and the relative viability (HARA; first compound 0.4 µM) was 0.192. For the same compound, the relative viability (HARA; first compound 4 µM) was 0.214, the relative viability (EMC-BAC-2; first compound 0.04 µM) was 0.417 and the relative viability (EMC-BAC-2; first compound 0.1265 µM) was 0.439. For the same compound, the relative viability (EMC-BAC-2; first compound 0.4 µM) was 0.458, the relative viability (EMC-BAC-2; first compound 4 µM) was 0.459 and the relative viability (NCI-H647; first compound 0.04 µM) was 0.19. The relative viability (NCI-H647; first compound 0.1265 µM) was 0.154, the relative viability (NCI-H647; first compound 0.4 µM) was 0.102 and the relative viability (NCI-H647; first compound 4 µM) was 0.155. For the same compound, the relative viability (NCI-H1666; first compound 0.04 µM) was 0.905, the relative viability (NCI-H1666; first compound 0.1265 µM) was 0.837 and the relative viability (NCI-H1666; first compound 0.4 µM) was 0.845. The relative viability (NCI-H1666; first compound 4 µM) was 0.843, the relative viability (NCI-H838; first compound 0.04 µM) was 0.262 and the relative viability (NCI-H838; first compound 0.1265 µM) was 0.244. The relative viability (NCI-H838; first compound 0.4 µM) was 0.243, the relative viability (NCI-H838; first compound 4 µM) was 0.236 and the relative viability (NCI-H3122; first compound 0.04 µM) was 0.192. The relative viability (NCI-H3122; first compound 0.1265 µM) was 0.193, the relative viability (NCI-H3122; first compound 0.4 µM) was 0.192 and the relative viability (NCI-H3122; first compound 4 µM) was 0.183. For the same compound, the relative viability (BEN; first compound 0.04 µM) was 0.633, the relative viability (BEN; first compound 0.1265 µM) was 0.713 and the relative viability (BEN; first compound 0.4 µM) was 0.749. For the same compound, the relative viability (BEN; first compound 4 µM) was 0.648.
